Test results reported in patent US20190136254A1, “ALS Inhibitor Herbicide Tolerant Mutant Plants” (BASF SE, priority 2013, published 2019).

Assays:
[1] = biological target: AHAS protein comprising the W574L mutation (Arabidopsis thaliana, UniProt P17597, W574L); test: biochemical; details: for Resistance Factor W574L: AHAS W574L relative to WT; for pI50 W574L: AHAS W574L
Description: (§1) Bacteria are grown at 37° C. in LB-medium containing 100 mg/l carbenicillin and 25 mg/l canamycin, induced with 1 mM isopropyl-β-D-thiogalactopyranoside at an OD600 of 0.6, cultivated for 16 hours at 18° C. and harvested by, e.g., centrifugation. Bacterial pellets are resuspended in 100 mM sodium phosphate buffer pH 7.0 containing 0.1 mM thiamine-pyrophosphate, 1 mM MgCl2, and 1 μM FAD at a concentration of 1 gram wet weight per 25 ml of buffer and disrupted by, e.g., sonification. The crude protein extract obtained after centrifugation is used for ALS activity measurements.
(§2) ALS protein can be extracted from leaves or tissue cultures, such as B. napus or B. juncea leaves, or B. napus or B. juncea tissue cultures as described by Ray (Plant Physiol, 1984, 75:827-831). An ALS assays can be carried out in 96-well microtiter plates using a modification of the procedure described by Ray (1984): The reaction mixture contains 20 mM potassium phosphate buffer pH 7.0, 20 mM sodium pyruvate, 0.45 mM thiamine-pyrophosphate, 0.45 mM MgCl2, 9 μM FAD. ALS enzyme and various concentrations of ALS inhibitors can be mixed in a final volume of 90 μl. Assays can be initiated by adding enzyme and the assays can be terminated after 75 min incubation at 30° C. by the addition of 40 μl 0.5 M H2SO4.

[2] = biological target: AHAS protein comprising the P197S mutation (Arabidopsis thaliana, UniProt P17597, P197S); test: biochemical; details: for Resistance Factor P197S: AHAS P197S relative to WT; for pI50 P197S: AHAS P197S
Sequence of AHAS protein comprising the P197S mutation (P17597 56-670 P197S): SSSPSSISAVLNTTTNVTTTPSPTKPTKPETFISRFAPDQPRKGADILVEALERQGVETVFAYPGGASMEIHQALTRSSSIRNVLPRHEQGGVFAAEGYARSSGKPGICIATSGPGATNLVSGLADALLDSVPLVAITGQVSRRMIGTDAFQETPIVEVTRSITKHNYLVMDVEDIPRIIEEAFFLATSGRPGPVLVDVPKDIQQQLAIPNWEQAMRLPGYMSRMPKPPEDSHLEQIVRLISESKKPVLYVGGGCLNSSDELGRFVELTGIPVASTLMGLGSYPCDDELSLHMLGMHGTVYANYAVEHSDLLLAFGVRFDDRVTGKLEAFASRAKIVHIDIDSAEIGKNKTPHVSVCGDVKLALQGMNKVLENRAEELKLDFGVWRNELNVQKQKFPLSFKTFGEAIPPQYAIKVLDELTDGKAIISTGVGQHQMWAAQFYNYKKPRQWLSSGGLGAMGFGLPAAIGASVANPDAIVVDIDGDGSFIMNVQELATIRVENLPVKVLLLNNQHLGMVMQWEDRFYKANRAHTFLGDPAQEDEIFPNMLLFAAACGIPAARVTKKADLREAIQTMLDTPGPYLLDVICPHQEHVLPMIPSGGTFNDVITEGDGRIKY
Description: as §1, §2

[3] = biological target: AHAS protein WT (Arabidopsis thaliana, UniProt P17597); test: biochemical; details: for pI50 WT: AHAS WT
Sequence of AHAS protein WT (P17597 56-670): as the sequence (P17597 56-670 P197S) above, with S142P counted along it
Description: as §1, §2

[4] = biological target: AHAS protein comprising both the P197S and W574L mutation in one ALS protein (Arabidopsis thaliana, UniProt P17597, P197S/W574L); assay type: biochemical; details: both mutations in one ALS protein; for Resistance Factor P197S-W574L (in one protein): relative to WT
Sequence of AHAS protein comprising both the P197S and W574L mutation in one ALS protein (P17597 56-670 P197S/W574L): as the sequence (P17597 56-670 P197S) above, with W519L counted along it
Description: as §1, §2

[5] = biological target: mixture of two ALS proteins, one comprising the P197S and the other the W574L mutation (Arabidopsis thaliana, UniProt P17597, P197S/W574L); test: biochemical; details: for Resistance Factor P197S & W574L (mixture): calculated mixture of two ALS proteins, relative to WT; for pI50 P197S & W574L (mixture): mixture of two ALS proteins, calculated as described in WO 2013/127766
Sequence of mixture of two ALS proteins, one comprising the P197S and the other the W574L mutation (P17597 56-670 P197S/W574L): as the sequence (P17597 56-670 P197S) above, with W519L counted along it

[6] = system: wild-type (WT) oilseed rape; test: Field test of visible phytotoxicity upon herbicide spraying, wild-type; assay type: in vivo, Brassica napus; details: g ai/ha: imazamox 40, bispyribac-sodium 50, propoxycarbazone-sodium 70, mesosulfuron-methyl 60, pyroxsulam 12.5 + cloquintocet-mexyl 37.5, each + rapeseed oil methylated 366.5, 0%=no phytotoxic effects, 100%=all plants killed
Source text: (§3) Seeds of spring oilseed rape homozygous for HETO132 and HETO134, and seeds of spring oilseed rape homozygous for HETO133 and HETO 134 were sown in a field according to typical practical agricultural methods. Several ALS inhibitor herbicides were applied to the oilseed rape plants by using specific spray equipment for small plot applications. […] The use of all herbicides in the test lead to a clearly better tolerance of the spring oilseed rape lines homozygous for HETO132 and HETO134 as compared to a standard variety not comprising ALS alleles according to the invention.

[7] = system: oilseed rape homozygous for HETO133 and HETO134; test: Field test of visible phytotoxicity upon herbicide spraying, HETO133-HETO134; assay type: in vivo, Brassica napus; details: g ai/ha: imazamox 40, bispyribac-sodium 50, propoxycarbazone-sodium 70, mesosulfuron-methyl 60, pyroxsulam 12.5 + cloquintocet-mexyl 37.5, each + rapeseed oil methylated 366.5, 0%=no phytotoxic effects, 100%=all plants killed
Source text: as §3

[8] = system: oilseed rape homozygous for HETO132 and HETO134; test: Field test of visible phytotoxicity upon herbicide spraying, HETO132-HETO134; assay type: in vivo, Brassica napus; details: g ai/ha: imazamox 40, bispyribac-sodium 50, propoxycarbazone-sodium 70, mesosulfuron-methyl 60, pyroxsulam 12.5 + cloquintocet-mexyl 37.5, each + rapeseed oil methylated 366.5, 0%=no phytotoxic effects, 100%=all plants killed
Source text: as §3

Sequence of AHAS protein comprising the W574L mutation (P17597 56-670 W574L): as the sequence (P17597 56-670 P197S) above, with S142P, W519L counted along it

Compound | IC50 [1] | Resistance Factor W574L [1] | IC50 [2] | Resistance Factor P197S [2] | IC50 [3] | pI50 P197S-W574L (in one protein) [4] | Resistance Factor P197S-W574L (in one protein) [4] | IC50 [5] | Resistance Factor P197S & W574L (mixture) [5] | also measured
CCS(=O)(=O)c1cccnc1S(=O)(=O)NC(=O)Nc1nc(OC)cc(OC)n1 [Rimsulfuron, rimsulfuron] | 10000 nM | 447 | 398 nM | 18 | 20 nM | <4 | >4466 | 2000 nM | 63 | 
COc1cc(OC)nc(NC(=O)NS(=O)(=O)c2ncccc2C(=O)N(C)C)n1 [Nicosulfuron, nicosulfuron] | > 100000 nM | >607 | 1000 nM | 6 | 158 nM | <4 | >607 | 31600 nM | 251 | 
CCS(=O)(=O)c1nc2ccccn2c1S(=O)(=O)NC(=O)Nc1nc(OC)cc(OC)n1 [Sulfosulfuron, sulfosulfuron] | > 100000 nM | >4641 | 39800 nM | 1848 | 20 nM | <4 | >4641 | 251000 nM | 10000 | 
COc1ncc(F)c2nc(S(=O)(=O)Nc3c(F)cccc3F)nn12 [Florasulam, florasulam] |  | 1738 |  | 28 |  | <4 | >6918 |  | 200 | pI50 W574L [1]: 4.6; pI50 P197S [2]: 6.4; pI50 WT [3]: 7.8; pI50 P197S & W574L (mixture) [5]: 5.5
COc1cc(OC)nc(NC(=O)NS(=O)(=O)N(C)S(C)(=O)=O)n1 [Amidosulfuron, amidosulfuron] | > 100000 nM | >488 | > 100000 nM | >488 | 200 nM | <4 | >488 | > 100000 nM | >501 | 
COC(=O)c1ccc(C(F)(F)F)nc1S(=O)(=O)NC(=O)Nc1nc(OC)cc(OC)n1 [Flupyrsulfuron-methyl] |  |  |  |  |  |  | >47863 |  |  | 
COc1cc(OC)nc(NC(=O)NS(=O)(=O)c2ncccc2C(F)(F)F)n1 [Flazasulfuron, flazasulfuron] | 3160 nM | 3802 | 100 nM | 120 | 0.794 nM | <4 | >120226 | 631 nM | 794 | 
CCCOc1nn(C(=O)[N-]S(=O)(=O)c2ccccc2C(=O)OC)c(=O)n1C.[Na+] [PROPOXYCARBAZONE-SODIUM, propoxycarbazone-sodium] |  |  |  |  |  |  |  |  |  | Percentage phytotoxicity 9 DAA wild-type [6]: 76.7%; Percentage phytotoxicity 16 DAA wild-type [6]: 97%; Percentage phytotoxicity 24 DAA wild-type [6]: 97.7%; Percentage phytotoxicity 9 DAA HETO133-HETO134 [7]: 53.3%; Percentage phytotoxicity 16 DAA HETO133-HETO134 [7]: 82.7%; Percentage phytotoxicity 24 DAA HETO133-HETO134 [7]: 76.7%; Percentage phytotoxicity 9 DAA HETO132-HETO134 [8]: 40%; Percentage phytotoxicity 16 DAA HETO132-HETO134 [8]: 36.7%; Percentage phytotoxicity 24 DAA HETO132-HETO134 [8]: 11.7%
COC(=O)c1sccc1S(=O)(=O)NC(=O)Nc1nc(C)nc(OC)n1 [Thifensulfuron-Methyl, thifensulfuron-methyl] | 63100 nM | 1585 | 7940 nM | 200 | 39.8 nM | <4 | >2511 | 25100 nM | 631 | 
COC(=O)c1ccc(I)cc1S(=O)(=O)[N-]C(=O)Nc1nc(C)nc(OC)n1.[Na+] [Iodosulfuron-methy-sodium, iodosulfuron-methyl-sodium] |  | 555 |  | 139 |  |  | >35030 |  | 316 | 
COc1cc(OC)n2nc(S(=O)(=O)Nc3c(Cl)ccc(C)c3Cl)nc2n1 [Metosulam, metosulam] | 20000 nM | 5754 | 1580 nM | 457 | 3.16 nM | <4 | >28840 | 6310 nM | 2512 | 
COc1cc(OC)n2nc(NS(=O)(=O)c3c(C(F)(F)F)ccnc3OC)nc2n1 [Pyroxsulam, pyroxsulam] |  | >41368 |  | 261 |  | <4 | >41368 |  | 6310 | pI50 W574L [1]: <4; pI50 P197S [2]: 6.2; pI50 WT [3]: 8.6; pI50 P197S & W574L (mixture) [5]: 4.8
COC(=O)c1ccc(CNS(C)(=O)=O)cc1S(=O)(=O)NC(=O)Nc1nc(OC)cc(OC)n1 [Mesosulfuron-methyl, mesosulfuron-methyl] |  | 25770 |  | 65 |  |  | >64730 |  | 794 | 
COC(=O)c1csc(C)c1S(=O)(=O)NC(=O)n1nc(OC)n(C)c1=O [Thiencarbazone-methyl, thiencarbazone-methyl] |  | 1173 |  | 1173 |  |  | >7399 |  | 1259 | 
CCCOc1nn(C(=O)[N-]S(=O)(=O)c2ccccc2C(=O)OC)c(=O)n1C.[Na+] [Propoxycarbazone] |  | 293 |  | 147 |  |  | >4641 |  | 200 | 
COC(=O)c1ccccc1S(=O)(=O)NC(=O)Nc1nc(C)nc(OC)n1 [Metsulfuron-methyl, metsulfuron-methyl] |  | 755 |  | 38 |  |  | >7547 |  |  | 
